# Patent US20060217368A1, “Drug for nerve regeneration” (Kyowa Hakko Kogyo Co., Ltd., priority 2003, published 2006)
# Columns and labels:
# Format in all cases: cell-based, rat
# [1] = test system: ANSC-7 cells; assay: Neuropoiesis of ANSC-7 adult neural stem cells: number of Tuj1 positive neurons after induction of differentiation; conditions: siRNA introduced into ANSC-7; day 6
# [2] = test system: GSK-3α; assay: Amount of GSK-3α in ANSC-7 cells after siRNA introduction (Western blotting); conditions: 150 pmol per 1×10^6 ANSC-7 cells; 48 hrs following seeding
# [3] = test system: ANSC-7 cells; assay: Neuropoiesis of ANSC-7 adult neural stem cells: number of Tuj1 positive neurons after induction of differentiation
# Procedure: ANSC-7 cells which can be obtained by the method described in Reference Example 2 are plated at 1.8×10^5 cells per well in a 12-well culture dish which was coated with polyornithine and laminin and was filled with a DMEM/F12 medium containing 1 ml of a 1% N2 supplement (manufactured by Invitrogen Corporation) and 20 ng/ml FGF-2 (manufactured by PeproTech Inc.), and incubated overnight. Entire culture fluid is changed into a DMEM/F12 medium containing 0.5% fetal bovine serum and a 1% N2 supplement without including FGF2 (manufactured by Invitrogen Corporation, hereinafter, referred to as differentiation inducing medium) to induce differentiation. Upon the induction, the substance that inhibits the activity of GSK-3 serially diluted in PBS (manufactured by Invitrogen Corporation) or DMSO in the range of from 0.01 mmol/l to […] is added thereto in 1/1000 volume. As a negative control, the same volume of PBS or DMSO is added.
# After changing the culture fluid into the differentiation inducing medium supplemented with each substance that inhibits the activity of GSK-3 every three days, and inducing differentiation for 6 days, it is replaced with a 15% neutral buffered formalin solution (Wako Pure Chemical Industries, Ltd.) to allow fixation for 20 min. Thereafter, washing with PBS containing 0.3% Triton X-100 (manufactured by Nacalai Tesque, Inc.) for 5 min is repeated three times. Next, after blocking the cells using a 10% goat fetal serum diluted in PBS (manufactured by DAKO Corporation) for 2 hrs, a reaction is allowed with a mouse anti-Tuj1 (β tubulin isotype III) antibody (manufactured by Sigma-Aldrich Corporation) diluted 1000 times in PBS as a primary antibody at 4° C. for 16 hrs. Thereafter, washing with PBS containing 0.3% Triton X-100 for 5 min is repeated three times.
# Next, a reaction is allowed with Alexa Fluor 488 conjugate goat anti-mouse IgG antibody (manufactured by Molecular Probes, Inc.) diluted 1000 times as a secondary antibody at room temperature for 2 hrs. At the same time, Bisbenzimide H 33342 Fluorochrome, Trihydrochloride (manufactured by CALBIOCHEM, hereinafter, described as H33342) is added thereto to give the final concentration of 1 μg/ml to stain the nucleus. After immersing in PBS, observation with an inverted fluorescence microscope (manufactured by Nikon Corporation) is conducted, and the number of Tuj1 positive cells per 2.44 mm^2 is counted.
# [4] = test system: ANSC-7 cells; assay: Suppression of neuropoiesis by associated beta amyloid peptide and relief by GSK-3 inhibitor (Tuj1 positive neurons); conditions: day 6
# Procedure: A beta amyloid peptide (hereinafter, referred to as Aβ) is a principal component constituting senile plaques, and it is a substance which has been believed to be a cause of Alzheimer's disease [Proc. Nat. Acad. Sci., USA, 98, 11039-11041 (2001)]. Aβ [1-40] (manufactured by BIOSOURCE) was dissolved in 0.1% (v/v) trifluoroacetic acid (Manufactured by Nacalai Tesque, Inc.) to give 10 mg/ml, and incubated at 25° C. for 1 hour. Thereafter, the solution was diluted in PBS to give 0.5 mg/ml. The diluted solution was incubated at 25° C. for 24 hrs to allow the formation of an associated product [J. Biol. Chem., 276, 42027-42034 (2001)]. […] On day 2 and day 4 following the induction of differentiation, the entire medium was changed to the differentiation inducing medium alone, respectively, and the number of neurons was measured on day 6 following induction of the differentiation.
# According to a similar method to that shown in Experimental Example 8, lithiumchloride at a final concentration of 3 mmol/l, or Kenpaullone at a final concentration of 2 μmol/l was added to a differentiation inducing medium containing the associated Aβ at a final concentration of 0.1 mg/ml upon inducing differentiation of the ANSC-7 cell, and the number of Tuj1 positive neurons on day 6 following inducing differentiation was analyzed.
# [5] = test system: ANSC-7 cells; assay: Apoptosis of ANSC-7 cells (in situ cell death detection kit, fluorescein); conditions: final concentration 0.1 mg/ml; 6 days; vs PBS
# Procedure: According to the method described in the above section 7, lithium chloride was added to give the final concentration of 3 mmol/l into the medium containing ANSC-7 cells followed by culture for 6 days. ANSC-7 cells thus cultured after adding lithium chloride, and ANSC-7 cells cultured after adding PBS as a control were allowed to a reaction using an in situ cell death detection kit, fluorescein (manufactured by Roche Diagnostics K.K.) according to the attached protocol. The cells were observed using an inverted fluorescence microscope (manufactured by Nikon Corporation), and the number of apoptotic cell was counted per 2.44 mm^2.
# According to a similar method to that shown in Experimental Example 8, ANSC-7 cells subjected to induction of differentiation for 6 days by a differentiation inducing medium containing the associated Aβ at the final concentration of 0.1 mg/ml, and ANSC-7 cells subjected to induction of differentiation by a medium containing PBS as a control were allowed to react using an in situ cell death detection kit, fluorescein (manufactured by Roche Diagnostics K.K.) according to the attached protocol. The cells were observed using an inverted fluorescence microscope (manufactured by Nikon Corporation), and the number of apoptotic cells per 2.44 mm^2 was counted.
# [6] = final concentration 2 μmol/l, day 6
# [7] = final concentration 5 μmol/l, day 6
molecule,measurement,setting,value
"siRNA-B2: double stranded siRNA having SEQ ID NO: 16 and 17, specific for GSK-3β (chain 1 GUCUAGCCUAUAUCCAUUCUU; chain 2 GAAUGGAUAUAGGCUAGACUU; listed as RNA, chemistry not given here)",number of Tuj1 positive neurons in comparison with the negative control siRNA,[1],1.9 times
same,amount of GSK-3α,[2],unchanged
CC[C@H](CO)Nc1nc(NCc2ccccc2)c2ncn(C(C)C)c2n1 [Roscovitine],number of Tuj1 positive neurons in comparison with the negative control,[3]; [6],1.0 times
same,number of Tuj1 positive neurons in comparison with the negative control,[3]; [7],1.2 times
same,number of Tuj1 positive neurons in comparison with the negative control,"[3]; final concentration 10 μmol/l, day 6",1.1 times
associated Aβ: beta amyloid peptide Aβ [1-40] incubated to form an associated product,decrease in number of Tuj1 positive neurons,"[4]; final concentration 0.1 mg/ml, vs PBS",78%
same,increase in number of apoptotic positive cells,[5],14%
"siRNA-B1: double stranded siRNA having SEQ ID NO: 14 and 15, specific for GSK-3β (chain 1 GUCAGUUACACAGACACUAUU; chain 2 UAGUGUCUGUGUAACUGACUU; listed as RNA, chemistry not given here)",number of Tuj1 positive neurons in comparison with the negative control siRNA,[1],2.5 times
same,amount of GSK-3α,[2],unchanged
C=C[C@@]1(C)CC(=O)[C@]2(O)[C@@]3(C)[C@@H](O)CCC(C)(C)[C@@H]3[C@H](O)[C@H](OC(C)=O)[C@@]2(C)O1 [forskolin],rate of increase in neurons,"[3]; 1 μmol/l, coexistence with 3 mmol/l lithium chloride",1.2 times
same,rate of increase in neurons,"[3]; 1 μmol/l, without lithium chloride",1.9 times
same,rate of increase in neurons,"[3]; 5 μmol/l, coexistence with 3 mmol/l lithium chloride",1.1 times
same,rate of increase in neurons,"[3]; 5 μmol/l, without lithium chloride",2.2 times
indirubin-3′-monoxime,number of Tuj1 positive neurons in comparison with the negative control,"[3]; final concentration 1 μmol/l, day 6",1.4 times
"Cn1cc(C2=C(c3ccc(Cl)cc3Cl)C(=O)NC2=O)c2ccccc21 [SB-216763, 3-(2,4-dichlorophenyl)-4-(1-methylindole-3-yl)-1H-pyrrole-2,5-dione]",number of Tuj1 positive neurons relative to control,"[3]; final concentration 0.3 μmol/l, day 6",1.2 times
same,number of Tuj1 positive neurons relative to control,"[3]; final concentration 1.0 μmol/l, day 6",1.8 times
[Cl-].[Na+] [sodium chloride],number of Tuj1 positive neurons relative to control,"[3]; final concentration 0.01 mmol/l, day 6 following induction of differentiation",1.0 times
same,number of Tuj1 positive neurons relative to control,"[3]; final concentration 0.1 mmol/l, day 6 following induction of differentiation",1.1 times
same,number of Tuj1 positive neurons relative to control,"[3]; final concentration 1 mmol/l, day 6 following induction of differentiation",1.2 times
same,number of Tuj1 positive neurons relative to control,"[3]; final concentration 3 mmol/l, day 6 following induction of differentiation",1.2 times
"O=C1Cc2c([nH]c3ccc(Br)cc23)-c2ccccc2N1 [Kenpaullone, 9-bromo-7,12-dihydro-indolo[3,2-d][1]benzazepin-6(5H)-one]",number of Tuj1 positive neurons in comparison with the negative control,"[3]; final concentration 0.5 μmol/l, day 6",1.3 times
same,number of Tuj1 positive neurons in comparison with the negative control,[3]; [6],2.7 times
same,number of Tuj1 positive neurons in comparison with the negative control,[3]; [7],3.7 times
same,increase in number of Tuj1 positive neurons in comparison with associated Aβ alone,[4]; 2 μmol/l with 0.1 mg/ml associated Aβ,400%
